We go through two molecules from US20240158495A1, “Antibody Agents Directed Against Lymphocyte Activation Gene-3 (LAG-3) and Uses Thereof” (Tesaro, Inc., priority 2017, published 2024).

For orientation: IC50 means the concentration that gives 50% inhibition.

Assay [1] concerns PARP activity. As to conditions: various cell lines, hydrogen peroxide, cited from earlier work.
The test system of assay [2] is primary human CD4+ T cells. The assay can be described thus: Mixed lymphocyte reaction (MLR) assay, IL-2 secretion. Type of assay: cell-based. As to conditions: 48 hours, antibody alone, FIG. 4. As for the experimental part:
This example describes the ability of an exemplary anti-LAG-3 antibody agent to activate primary human T cells in vitro. […] In this MLR assay, primary human CD4+ T cells were mixed with monocyte-derived dendritic cells from a different donor. In these studies, dendritic cells and allogeneic CD4+ T cells were incubated in the presence of an exemplary anti-LAG-3 antibody agent or isotype control for 48 hours, and activation of T cells was determined by measuring the level of interleukin-2 (IL-2) secretion.

Assay [3] deals with human PBMCs. The assay can be described thus: IL-2 release from SEB-stimulated human PBMCs. Type of assay: cell-based. As to conditions: 100 ng/mL SEB for 3 days, 5 donors, FIG. 5. On the procedure: Specifically human PBMCs (from 5 donors) were stimulated with 100 ng/mL SEB for 3 days and then IL-2 induction was assessed.
In assay [4] the test system is Cyno LAG-3. The assay can be described thus: SPR binding to recombinant soluble cyno LAG-3. Further details: species or system cynomolgus monkey. For orientation: SPR reads the build-up and loss of mass on a sensor chip optically.
The target in assay [5] is T1, LAG-3 (Homo sapiens, UniProt P18627).
T1 construct: PBMCs were isolated from fresh whole blood samples from patients; endogenous in cells; host or cells: T cells in PBMCs from patient whole blood
T1 sequence (P18627 23-525): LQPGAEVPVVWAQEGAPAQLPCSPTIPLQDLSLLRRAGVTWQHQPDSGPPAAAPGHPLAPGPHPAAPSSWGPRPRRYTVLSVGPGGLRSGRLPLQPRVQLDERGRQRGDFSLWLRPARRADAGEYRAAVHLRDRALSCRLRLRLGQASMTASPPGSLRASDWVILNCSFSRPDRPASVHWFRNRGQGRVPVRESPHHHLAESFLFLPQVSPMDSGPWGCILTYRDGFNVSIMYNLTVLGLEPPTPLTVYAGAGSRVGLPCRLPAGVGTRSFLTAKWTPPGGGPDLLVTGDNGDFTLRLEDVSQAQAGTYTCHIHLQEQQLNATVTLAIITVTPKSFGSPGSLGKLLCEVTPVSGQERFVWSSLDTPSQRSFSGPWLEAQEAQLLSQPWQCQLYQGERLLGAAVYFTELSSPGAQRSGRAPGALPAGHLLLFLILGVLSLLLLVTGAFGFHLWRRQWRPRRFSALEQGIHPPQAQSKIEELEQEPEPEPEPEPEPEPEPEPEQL
As to the kind of experiment: Receptor occupancy on patient T cells (direct binding assay, flow cytometry). Type of assay: in vivo. As to conditions: patients, early time points, FIG. 10C. The text has this: The saturation binding aliquot was run in parallel as a control to assess the range of the assay.
(A flow cytometer gives signals particle by particle.)

Assay [6] has as its target T2, Human LAG-3 (Homo sapiens, UniProt P18627).
T2 construct: either recombinant soluble or cell-surface-expressed human and cynomolgus monkey (cyno) LAG-3
T2 sequence (P18627 23-450 limits assumed): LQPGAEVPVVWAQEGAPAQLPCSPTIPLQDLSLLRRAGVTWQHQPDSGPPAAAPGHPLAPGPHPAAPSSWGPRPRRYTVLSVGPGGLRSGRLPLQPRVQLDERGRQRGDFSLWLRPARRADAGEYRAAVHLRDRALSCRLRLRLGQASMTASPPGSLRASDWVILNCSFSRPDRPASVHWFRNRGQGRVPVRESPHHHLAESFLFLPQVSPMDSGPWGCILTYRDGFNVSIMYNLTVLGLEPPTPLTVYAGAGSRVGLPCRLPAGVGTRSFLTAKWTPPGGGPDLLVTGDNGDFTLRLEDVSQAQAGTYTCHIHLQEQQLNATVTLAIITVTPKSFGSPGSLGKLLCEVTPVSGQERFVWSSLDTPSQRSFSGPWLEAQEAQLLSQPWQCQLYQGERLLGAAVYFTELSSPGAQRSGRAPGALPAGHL
As to the kind of experiment: SPR binding to recombinant soluble human LAG-3.

For assay [7], the target named is T3, LAG-3/MHC-II binding (Homo sapiens, UniProt P18627).
T3 construct: expressed in transfected cells; host or cells: Jurkat cells (NFAT reporter)
T3 sequence (P18627 23-525): T1 sequence (P18627 23-525)
The assay can be described thus: LAG-3 reporter gene assay (LAG-3 Jurkat cells / MHC class II Raji cells, NFAT readout). Type of assay: cell-based. The note with it: FIG. 3C. The text has this:
Specifically, this example uses Raji cells, which express high levels of endogenous MHC class II.

On to `NC(=O)c1cccc2cn(-c3ccc([C@@H]4CCCNC4)cc3)nc12` [Niraparib, (3S)-3-[4-{7-(aminocarbonyl)-2H-indazol-2-yl}phenyl]piperidine], for which, in assay [1] (read-out: inhibitory concentration at 90% of control (IC90)), the IC90 is approximately 50 nM. Besides, the half-maximal inhibitory concentration (IC50) in assay [1] was approximately 4 nM.
As for “TSR-033: anti-LAG-3 antibody agent comprising a heavy chain of SEQ ID NO: 21 and a light chain of SEQ ID NO: 22”, the IL-2 production result in assay [2] and in assay [3] was “dose-dependently increased IL-2 production” each time. Besides, the Kassoc was 1.1 × 10^5 (ms)^−1 in assay [4] and 1.3 × 10^5 (ms)^−1 in assay [6]. Also, the Kdissoc in assay [4] stood at 0.00026 s⁻¹; in assay [6], 0.00013 s⁻¹. Moreover, the “receptor occupancy (RO)” value in assay [5] (80 mg dose) is given as “approximately 50%”; in assay [5] (240 mg dose), “approaches saturation”. The “disruption of binding of LAG-3 on Jurkat cells to MHC Class II expressing Raji cells” value in assay [7] is on record as “potent antagonist”.
